Experimental data from patent publication US5225436A, “Aryl substituted naphthalene derivatives” (Schering Corporation, priority 1991, dated 1993).
Where two headings read alike, the source gives them in different places.

Assays:
5-lipoxygenase = molecular target: T1, 5-lipoxygenase (Homo sapiens, UniProt P09917); experiment: 5-Lipoxygenase assay with human neutrophils; assay type: cell-based; conditions: 5 min, Human PMN, dose 15 μm (μM)
T1 construct: Human polymorphonuclear leukocytes (neutrophils) were obtained from normal healthy volunteers; endogenous in cells; host or cells: human blood neutrophils from healthy volunteers
T1 sequence (P09917 1-674): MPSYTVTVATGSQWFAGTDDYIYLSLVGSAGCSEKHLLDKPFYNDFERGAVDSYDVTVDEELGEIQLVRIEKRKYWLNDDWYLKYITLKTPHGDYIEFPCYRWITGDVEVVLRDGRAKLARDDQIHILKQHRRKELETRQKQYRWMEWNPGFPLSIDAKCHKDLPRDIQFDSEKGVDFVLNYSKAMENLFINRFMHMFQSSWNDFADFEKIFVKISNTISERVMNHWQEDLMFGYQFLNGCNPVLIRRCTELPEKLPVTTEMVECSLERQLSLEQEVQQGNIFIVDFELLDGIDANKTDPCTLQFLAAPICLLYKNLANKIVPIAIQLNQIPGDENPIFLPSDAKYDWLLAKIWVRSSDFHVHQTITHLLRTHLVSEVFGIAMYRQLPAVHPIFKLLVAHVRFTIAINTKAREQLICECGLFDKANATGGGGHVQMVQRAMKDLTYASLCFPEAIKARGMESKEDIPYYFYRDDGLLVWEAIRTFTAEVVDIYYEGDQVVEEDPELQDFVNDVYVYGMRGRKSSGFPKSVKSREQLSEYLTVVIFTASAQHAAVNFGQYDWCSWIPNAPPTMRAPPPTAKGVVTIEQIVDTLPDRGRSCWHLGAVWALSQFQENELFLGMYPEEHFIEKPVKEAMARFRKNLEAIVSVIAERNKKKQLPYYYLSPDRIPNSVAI
Method: Human polymorphonuclear leukocytes (neutrophils) were obtained from normal healthy volunteers by venipuncture and collected with heparin anticoagulant. Neutrophils were isolated by Dextran/Ficol sedimentation as described (Billah et al., J. Biol. Chem. 260, 6899-6906 (1985)). In brief, 30 ml of blood was mixed with 5 ml of dextran (Sigma) solution and kept at 37° C. for 30 min. The upper white cell-rich layer was removed and 10 ml was layered on 9 ml of Ficol-Paque solution (Pharmacia) and centrifuged at 280 xg for 10 min. at 5° C. The supernatant was removed and the neutrophil pellet was resuspended in HEPES buffer containing 25 mM N-2-hydroxyethylpiperazine-N^1 -2-ethanesulfonic acid HEPES, 125 mM NaCl, 2.5 mM KCl, 0.7 mM MgCl2, […] 10 mM glucose at pH 7.4. The red cells in the suspension were lysed by hypotonic shock. The neutrophils were washed by centrifugation in HEPES buffer two times and finally resuspended at a concentration of 20×10^6 cells/ml in the presence of 1 mM CaCl2.
Neutrophils (0.2 ml of suspension) were preincubated with dimethylsulfoxide (DMSO) vehicle with or without test compound (1 ul) for 4 minutes then incubated for 5 minutes with [^14 C] arachidonic acid (Amersham, 59 Ci/mole) at a 9 uM final concentration, and the calcium ionophore A23187 (Calbiochem) at a 1 uM final concentration. These stimulants were added in 10 ul of water:ethanol (9:1). The reaction was stopped by addition of methanol (0.4 ml), and cellular debris was removed by centrifugation. Aliquots (100 ul) of the incubations were run on a Waters two pump HPLC system fitted with a DuPont Zorbax ODS, 5u, […] Reliance Cartridge column and C18 "Guard Pak". The column was initially eluted at 2 ml/min with 80% of the mixture water:methanol:acetic acid (46:54:0.08) containing 1 mM EDTA adjusted to pH 6.0 with ammonium hydroxide (Pump A) and 20% methanol (Pump B). At 10 minutes, a linear gradient to reach 100% methanol (Pump B) at 27 minutes was established. Between 27 and 28 minutes, methanol was exchanged for the initial eluting solvent and by 35 minutes the column had been reequilibrated for the next sample. The effluent was analyzed by a continuous flow radioactivity monitor (model ROMONA-D) interfaced with a Hewlett Packard Lab Automation System for quantitation of radioactive products. These were predominantly leukotriene B4 (LTB4) which eluted at 7 minutes, and 5-hydroxyeicosatetraenoic acid (5-HETE) which eluted at 20 minutes.

[1] = system: anaphylactic bronchospasm (antigen-induced SRS-A mediated bronchoconstriction); experiment: Inhibition of anaphylactic bronchospasm in sensitized guinea pigs; assay type: in vivo, guinea pig; conditions: Cavia porcellus, iv, 0.25 h; for inhibition in vivo at 10 mg/kg: read-out: % Inhibition of anaphylactic bronchospasm; for inhibition in vivo at 3 mg/kg: Dose 3 mpk
Method: The anti-allergy method of this invention is identified by tests which measure a compound's inhibition of anaphylactic bronchospams-in sensitized guinea pigs having antigen-induced SRS-A mediated bronchoconstriction. Allergic bronchospams was measured in actively sensitized guinea pigs by a modification of the procedure of Konzett and Rossler, Arch. Exptl. Pathol. Pharmakol., 194, pp. 71-74 (1940). Male Hartley guinea pigs were sensitized with 5 mg ovalbumin injected ip and 5 mg injected sc in 1 ml saline on day 1 and 5 mg ovalbumin injected ip on day 4. The sensitized animals were used 3-4 weeks later. To measure anaphylactic bronchospasm, sensitized guinea pigs were fasted overnight and the following morning were anesthetized with 0.9 ml/kp ip dialurethane. The trachea and jugular vein were cannulated and the animals were ventilated by a Harvard rodent respirator. A side arm to the tracheal cannula was connected to a Harvard pressure transducer to obtain a continuous measure of intratracheal pressure. An increase in intratracheal pressure was taken as a measure of bronchoconstriction. Each guinea pig was injected iv with 1 mg/kg propranolol, 5 mg/kg indomethacin and 2 mg/kg mepyramine given together in a volume of […]. Fifteen minutes later, the animals were challenged with antigen (0.5 percent ovalbumin) delivered as an aerosol generated from a DeVilbiss Model 65 ultrasonic nebulizer and delivered through the tracheal cannula for 30 seconds. Bronchoconstriction was measured as the peak increase in intratracheal pressure occurring within 15 minutes after antigen challenge.

[2] = system: SRS-A / leukotriene release from antigen-challenged, sensitized guinea pig lung; experiment: Inhibition of SRS-A (leukotriene) release from antigen-challenged, sensitized guinea pig lung; assay type: cell-based; parameters: inhibition: dose or concentration left out as unconfirmed; conditions: Cavia porcellus; for inhibition: Dose 30 μm (μM)
Excerpt: The anti-allergy method of this invention is identified by tests which measure a compound's inhibition of leukotriene release in sensitized guinea pigs. Sensitized guinea pigs are killed by a blow to the head and the lungs removed and cleaned of visible connective tissue, trachea and large blood vessels. The lungs from individual animals are sliced into fragments approximately 1 mm in thickness using a McIlwain tissue chopper and then washed with oxygenated Tyrode's buffer. Weighed aliquots (approximately 400 mg wet weight) of lung are transferred into vials containing 2 ml of fresh Tyrode's solution (containing 10 mM cysteine) and incubated in the presence or absence of test compound for 12 min at 37° C. The tissues are then challenged with 20 μg ovalbumin/ml (final concentration) and incubated for 15 min. To measure leukotriene release, an aliquot of supernatant fluid is extracted with 4 volumes of 100% ethanol. After removal of the precipitated protein, the clear fluid is dried under a stream of N2 gas. The leukotriene content is measured by a radioimmunoassay using [^3 H]LTC4 and antiserum obtained from New England Nuclear. The cross-reactivity of the antiserum for LTD4 is 55%. Percent inhibition of lekotriene release is calculated by comparing for each lung the release in the presence of the test compound to that in the absence of test compound. Representative compounds of the invention at a relative dose of 50 μM of tissue are found to inhibit leukotriene release in the test procedure as indicated below in Table 1: […]

Row | inhibition at 15 µM (5-lipoxygenase; read-out: % Inhibition 5-HETE) [%] | inhibition at 15 µM (5-lipoxygenase; read-out: % Inhibition LTB) [%] | Compound | inhibition in vivo at 10 mg/kg ([1]; Dose 10 mpk) [%] | inhibition [2] [%] | inhibition in vivo at 3 mg/kg [1] [%] | inhibition at 10 µM [2] [%] | inhibition in vivo at 10 mg/kg [1] [%]
1 | 28 |  | COc1cc(OC)c2c(c1)C(C)(C)C(c1ccc(OC)c(OC)c1)CC(C)C2=O (stereo not drawn) [drawing 90 [X=O; W=H; J=CH3]] | 53 | 61 |  |  | 
2 | 51 | 45 | COc1cc(OC)c2c(c1)C(C)(C)C(c1ccc(OC)c(OC)c1)CCC2=O (stereo not drawn) [drawing 90 [X=O; W=H; J=H]] | 56 | 78 |  |  | 
3 | 87 | 97 | COc1cc(OC)c2c(c1)C(C)(C)C(c1ccc(OC)c(OC)c1)CC(=O)C2 (stereo not drawn) [drawing 89 [X=CH2; R3/R4=O; P=OCH3]] | 0 | 47 |  |  | 
4 |  |  | CCOc1cc(OC)cc2c1C(=NO)CC(c1ccc(OC)c(OC)c1)C2(C)C (stereo not drawn) |  |  | 25 |  | 
5 | 39 | 63 | COc1cc(OC)c2c(c1)C(C)(C)C(c1ccc(OC)c(OC)c1)CCN2 (stereo not drawn) [drawing 89 [X=NH; R3/R4=H,H; P=OCH3]] | 34 | 45 |  |  | 
6 | 1 | 0 | COc1cc(OC)c2c(c1)C(C)(C)C(c1ccc(OC)c(OC)c1)=C(C)C2=O | 24 |  |  | 20 | 
7 |  |  | CN(C)C(=O)Oc1cc(OC(=O)N(C)C)c2c(c1)C(C)(C)C(c1ccc(OC(=O)N(C)C)c(OC(=O)N(C)C)c1)=CC2=O |  |  |  |  | 10
8 | 0 | 2 | COc1cc(OC)c2c(c1)C(C)(C)C(c1ccc(OC)c(OC)c1)CC(=O)N2 (stereo not drawn) [drawing 89 [X=NH; R3/R4=O; P=OCH3]] |  | 65 | 20 |  | 
9 | 73 |  | COc1ccc2c(c1)C(C)(C)C(c1ccc(OC)c(OC)c1)CCN2 (stereo not drawn) [drawing 89 [X=NH; R3/R4=H,H; P=H]] | 42 | 57 |  |  | 
10 | 2 |  | COc1cc(OC)c2c(c1)C(C)(C)C(c1ccc(OC)c(OC)c1)CCC2=NO (stereo not drawn) [drawing 90 [X=NOH; W=H; J=H]] | 10 | 58 |  |  | 
11 | 0 | 9 | COc1cc(OC)c2c(c1)C(C)(C)C(c1ccc(OC)c(OC)c1)=CC2=NO | 0 | 0 |  |  | 
12 | 2 | 0 | COc1cc(OC)c2c(c1)C(C)(C)C(c1ccc(OC)c(OC)c1)CC2=NNC(N)=O (stereo not drawn) | 20 |  |  | 1 | 
13 | 9 |  | COc1cc(OC)c2c(c1)C(C)(C)C(c1ccc(OC)c(OC)c1)CC(=O)O2 (stereo not drawn) [drawing 89 [X=O; R3/R4=O; P=OCH3]] | 4 | 59 |  |  | 
14 | 87 |  | COc1cc(OC)c2c(c1)C(C)(C)C(c1ccc(OC)c(OC)c1)CC(=NO)C2 (stereo not drawn) [drawing 89 [X=CH2; R3/R4=NOH; P=OCH3]] |  | 46 | 0 |  | 
15 |  |  | COc1cc(OC)c2c(c1)C(C)(C)C(c1ccc(OC)c(OC)c1)CC2=NOC(=O)C(C)(C)C (stereo not drawn) | 20 |  |  |  | 

Row | Compound | inhibition at 15 µM (5-lipoxygenase; read-out: % Inhibition 5-HETE) [%] | inhibition at 15 µM (5-lipoxygenase; read-out: % Inhibition LTB) [%] | inhibition in vivo at 10 mg/kg ([1]; Dose 10 mpk) [%] | inhibition [2] [%] | inhibition in vivo at 3 mg/kg [1] [%] | inhibition at 10 µM [2] [%] | inhibition in vivo at 10 mg/kg [1] [%]
16 | COc1cc(O)c2c(c1)C(C)(C)C(c1ccc(OC)c(OC)c1)CC2=NO (stereo not drawn) | 42 |  | 0 |  |  |  | 
